Data as given in patent US8703951B2, “Synthesis of 4H-benzo[D]pyrrolo[1,2-A]thiazoles and indolizino[6,7-b]indole derivatives and their use as antitumor therapeutic agents” (Academia Sinica, priority 2011, dated 2014).
Like-named read-outs stand apart in the source and are kept apart here.

Legend:
[1] = system: glioma U87; assay: In vitro cytotoxicity, Alamar blue assay, U87; type: cell-based, human; conditions: Table 6, 72 h
Protocol: (§1) Prostate cancer PC3, non-small cell lung carcinoma cells H1299, and human glioma cells U87 were purchased from the American Type Culture Collection (Rockville, Md.). OECM-1 (human gingival squamous cell carcinoma cells) was obtained from Dr C.-L. Meng (National Defense Medical College, Taiwan).^22
(§2) In preparation for in vitro cytotoxicity assays, cells were cultured at an initial density 2−5×10^4 cells per milliliter. They were maintained in a 5% CO2-humidified atmosphere at 37° C. in RPMI medium 1640 (GIBCO/BRL) containing penicillin (100 units/mL), streptomycin (100 μg/mL, GIBCO/BRL), and 5% heat-inactivated FBS. For cells grown in suspension (such as CCRF-CEM and its sublines), cytotoxicity was measured, by using XTT microculture method^23 in 96-well microtiter plates.
(§3) The cytotoxic effects of the newly synthesized compounds were determined in T-cell acute lymphocytic leukemia (CCRF-CEM) and their resistant subcell lines (CCRF-CEM/Taxol and CCRF-CEM/VBL) by the XTT assay^24 and human solid tumor cells (i.e. breast carcinoma MX-1 and colon carcinoma HCT-116) by the SRB assay^25 in a 72 h incubation using a microplate spectrophotometer as described previously.^25 After the addition of phenazine methosulfate-XTT solution, incubated at 37° C. for 6 h and absorbance at 450 and 630 nm was detected on a microplate reader (EL 340). The cytotoxicity of the newly synthesized compounds against non-small cell lung carcinoma H1299, prostate cancer PC3, oral cancer OECM-1 and glioma U87 were determined by the Alamar blue assay^26 in a 72 h incubation using a microplate spectrophotometer as described previously. After the addition of alamar blue solution, it was incubated at 37° C. for 6 h. Absorbance at 570 and 600 nm was detected on a microplate reader. IC50 values were determined from dose-effect relationship at six or seven concentrations of each drug using the CompuSyn software by Chou and Martin^27 based on the median-effect principle and plot.^28,29 Ranges given for Cisplatin were mean±SE (n=4).

[2] = system: CCRF-CEM/VBL; assay: In vitro cytotoxicity, XTT assay, CCRF-CEM/VBL; type: cell-based, human; conditions: Table 5; for IC50: vinblastine-resistant subline, XTT, 72 h, read-out: Cell Growth inhibition (IC50 μM) CCRF-CEM/VBL; for fold of cross-resistant vs IC50 of the parent cell line, CCRF-CEM/VBL: number in brackets
From the text: (§4) Human colon carcinoma HCT-116 cells and human prostate adenocarcinoma PC-3 cells were obtained from American Type Culture Collection (ATCC, Rockville, Md.). Human mammary carcinoma (MX-1) tumor cells were obtained from MSKCC cell bank. The CCRF-CEM human lymphoblastic leukemia cells and their vinblastine resistant subline (CCRF-CEM/VBL, 680-fold resistance in vitro) were obtained from Dr. William Beck of the University of Illinois, Chicago, and CCRF-CEM/Taxol (330-fold resistance in vitro). Resistant cells CCRF-CEM/taxol were produced by exposing the parent cells to increasing sublethal concentration (IC50-IC90) of paclitaxel for six months.
as §2, §3

[3] = system: prostate cancer PC3; assay: In vitro cytotoxicity, Alamar blue assay, PC3; type: cell-based, human; conditions: Table 6, 72 h
Protocol: as §1, §2, §3

[4] = system: CCRF-CEM/Taxol; assay: In vitro cytotoxicity, XTT assay, CCRF-CEM/Taxol; type: cell-based, human; conditions: Table 5; for IC50: Taxol-resistant subline, XTT, 72 h, read-out: Cell Growth inhibition (IC50 μM) CCRF-CEM/Taxol; for fold of cross-resistant vs IC50 of the parent cell line, CCRF-CEM/Taxol: number in brackets
From the text: as §4, §2, §3

[5] = system: non-small cell lung carcinoma H1299; assay: In vitro cytotoxicity, Alamar blue assay, H1299; type: cell-based, human
Protocol: as §1, §2, §3

[6] = system: human lymphoblastic leukemia (CCRF-CEM); assay: In vitro cytotoxicity, XTT assay, CCRF-CEM; type: cell-based; conditions: Table 5, 72 h incubation, read-out: Cell Growth inhibition (IC50 μM) CCRF-CEM
From the text: as §4, §2, §3

[7] = system: oral cancer OECM-1; assay: In vitro cytotoxicity, Alamar blue assay, OECM-1; type: cell-based, human
Protocol: as §1, §2, §3

[8] = system: colon carcinoma HCT-116; assay: In vitro cytotoxicity, SRB assay, HCT-116; type: cell-based, human
From the text: as §4, §2, §3

[9] = system: linearized pBR322DNA; assay: DNA cross-linking, alkaline agarose gel shift assay; type: biochemical; conditions: 1, 10, and 20 μM; FIG. 8
Protocol: Formation of DNA cross-linking was analyzed by alkaline agarose gel electrophoresis assay. […] The reaction mixture was incubated at 37° C. for 2 h. At the end of reaction, the plasmid DNA was linearized by digestion with BamHI and followed by precipitation with ethanol. The DNA pellets were dissolved and denatured in alkaline buffer (0.5 N NaOH-10 mM EDTA). An aliquot of 20 μL of DNA solution (1000 ng) was mixed with 4 μL of 6× alkaline loading dye and then electrophoretically resolved on a 0.8% alkaline agarose gel with NaOH-EDTA buffer at 4° C. The electrophoresis was carried out at 18 V for 22 h. After staining the gels with an ethidium bromide solution, the DNA was then visualized under UV light.

[10] = system: breast carcinoma MX-1; assay: In vitro cytotoxicity, SRB assay, MX-1; type: cell-based, human; conditions: Table 6, 72 h
From the text: as §4, §2, §3

[11] = Homo sapiens, NCI-H1299, Table 6, 72 h
[12] = Homo sapiens, OECM1, Table 6, 72 h

| SMILES | IC50 ([1]; Homo sapiens) [µM] | IC50 ([2]; Homo sapiens, CCRF-CEM) [µM] | fold of cross-resistant vs IC50 of the parent cell line, CCRF-CEM/VBL [2] [×] | IC50 ([3]; Homo sapiens) [µM] | IC50 ([4]; Homo sapiens, CCRF-CEM) [µM] | fold of cross-resistant vs IC50 of the parent cell line, CCRF-CEM/Taxol [4] [×] | IC50 [5, 11] [µM] | IC50 ([6]; Homo sapiens, CCRF-CEM) [µM] | IC50 [7, 12] [µM] | DNA interstrand cross-linking [9] | IC50 [1] [µM] | IC50 [2] [µM] | IC50 [3] [µM] | IC50 [4] [µM] | IC50 ([5]; Table 6, 72 h) [µM] | IC50 [6] [µM] | IC50 ([7]; Table 6, 72 h) [µM] | further results |
| --- | --- | --- | --- | --- | --- | --- | --- | --- | --- | --- | --- | --- | --- | --- | --- | --- | --- | --- |
| OCc1c(CO)c2sc3ccccc3n2c1-c1ccc(Cl)cc1 [Compound 18c, (1-(4-Chlorophenyl)benzo[d]pyrrolo[2,1-b]thiazole-2,3-diyl)dimethanol] | 20.7 ± 2.26 | 4.09 ± 0.025 | 1.56 | 20.4 ± 3.43 | 5.22 ± 0.026 | 2.00 | 12.4 ± 0.44 | 2.61 ± 0.03 | 14.6 ± 1.13 | able to bind covalently (interstrand cross-linking) with DNA | – | – | – | – | – | – | – | IC50 ([8]; Homo sapiens, HCT-116, Table 6, 72 h): 9.26 ± 0.049 µM; IC50 ([10]; Homo sapiens): 10.4 ± 0.003 µM |
| COc1ccc(-c2c(CO)c(CO)c3sc4ccccc4n23)cc1 [Compound 18g, (1-(4-Methoxyphenyl)benzo[d]pyrrolo[2,1-b]thiazole-2,3-diyl)dimethanol] | 18.1 ± 3.71 | 2.63 ± 0.031 | 2.30 | 8.81 ± 1.2 | 2.17 ± 0.02 | 1.9 | 9.94 ± 1.87 | 1.13 ± 0.09 | 5 ± 0.78 | able to bind covalently (interstrand cross-linking) with DNA | – | – | – | – | – | – | – | – |
| CCNC(=O)OCc1c(COC(=O)NCC)c2sc3ccccc3n2c1-c1ccc(Cl)cc1 [Compound 19c, (1-(4-Chlorophenyl)benzo[d]pyrrolo[2,1-b]thiazole-2,3-diyl)bis(methylene)bis(ethylcarbamate)] | – | – | 1.85 | – | – | 1.52 | – | – | – | able to bind covalently (interstrand cross-linking) with DNA | 26 ± 2.27 | 0.39 ± 0.012 | 13.8 ± 3.78 | 0.32 ± 0.003 | 4.33 ± 0.45 | 0.21 ± 0.01 | 11.6 ± 2.84 | IC50 ([8]; Table 6, 72 h): 0.7 ± 0.008 µM; IC50 [10]: 0.91 ± 0.01 µM |
| CCNC(=O)OCc1c(COC(=O)NCC)c2sc3ccccc3n2c1-c1ccc(OC)cc1 [Compound 19g, (1-(4-Methoxyphenyl)benzo[d]pyrrolo[2,1-b]thiazole-2,3-diyl)bis(methylene)bis(ethylcarbamate)] | – | – | 2.20 | – | – | 1.90 | – | – | – | able to bind covalently (interstrand cross-linking) with DNA | 29.5 ± 4.86 | 0.42 ± 0.003 | 17.9 ± 3.59 | 0.37 ± 0.001 | 8.85 ± 1.53 | 0.19 ± 0.002 | 9.39 ± 1.9 | – |
| COc1ccc(-c2c(COC(=O)NC(C)C)c(COC(=O)NC(C)C)c3sc4ccccc4n23)cc1 [Compound 20g, (1-(4-Methoxyphenyl)benzo[d]pyrrolo[2,1-b]thiazole-2,3-diyl)bis(methylene)bis(iso-propylcarbamate)] | – | – | 1.47 | – | – | 1.17 | – | – | – | able to bind covalently (interstrand cross-linking) with DNA | 60.9 ± 13.4 | 0.25 ± 0.008 | 17.5 ± 0.8 | 0.17 ± 0.004 | 8.19 ± 1.74 | 0.14 ± 0.002 | 7.23 ± 1.57 | – |
